Legend:
[1] = Biodistribution with post-administration of albumin-binding competitor IPBA; type: in vivo, normal mice (ddY); details: normal mice, IPBA at 1 h postinjection, 10 molar equivalent of blood albumin; except in the kidney
Protocol: To evaluate the effects of an albumin-binding competitor (sodium salt of IPBA) in normal mice, [^125I]5 and [^211At]6 were intravenously co-administered. At 1 h postinjection of the radiolabeled compounds, IPBA (3.4 mg, 11 µmol) dissolved in saline at a 10 molar equivalent of blood albumin was administered. Mice were sacrificed at 65 min, 70 min, 2 h, 4 h, 12 h, and 24 h postinjection of [^125I]5 and [^211At]6. Tissues of interest were treated, and the radioactivity was measured in the same manner as above. Data are also shown as %ID/g or %ID.

[2] = test system: PSMA-expressing LNCaP cells; assay: Cellular uptake and internalization in LNCaP cells, blocking with 2-PMPA; type: cell-based; details: 2-PMPA 100 µM
Protocol: Cellular uptake experiments were performed according to a previous report with slight modifications. LNCaP cells expressing PSMA were cultured in RPMI 1640 medium containing 10% fetal bovine serum (FBS) and 1% penicillin–streptomycin on 6-well culture plates (containing 5 × 10^5 cells/well) for 24 h in a humidified atmosphere (5% CO2) incubator at 37 °C. After removing the medium and washing with phosphate-buffered saline (PBS) (−) once, a mixed solution of [^125I]5 and [^211At]6, [^125I]5 and [^67Ga]Ga-PSMA-617, and [^125I]5 and [^67Ga]5 in 1.0 mL of medium without FBS was added (3.7 kBq/each tracer/well). The final concentrations of the radioligands for [^125I]5, [^211At]6, and [^67Ga]5 were 45.5 pM, 0.2 pM, and 2.5 pM, respectively. These solutions containing radioligands were diluted in saline containing 0.05% (w/v) bovine serum albumin (BSA) to prevent adsorption to tubes or plates and further diluted with medium to 0.00125% as the final BSA concentration. After incubation for 10, 60, and 120 min, the medium from each well was removed, and the cells were washed twice with ice-cold PBS (−); the surface of the cells was washed twice with ice-cold 0.2 M glycine buffer (pH 3.0). The cells were lysed using a 1 M NaOH aqueous solution. The radioactivity of ^67Ga,^125I and ^211At in the 1 M NaOH aqueous solution was determined and defined as the internalized radioligand fraction using an auto well gamma counter (ARC-8001, Hitachi, Ltd., Tokyo, Japan) according to a previous paper. The radioactivity was determined with an auto well gamma counter and corrected for background radiation and physical decay during counting. A window from 16 to 69 keV was used for counting ^125I, and a window from 70 to 120 keV was used for counting ^211At. Correlation factors to eliminate any crossover of ^125I activity in the ^211At counts were determined by measuring the ^125I standard in each window. More than one week after the experiments, the radioactivity counts of ^125I were measured after the decay of ^211At. The protein amount in cells was quantified using a BCA Protein Assay Kit (Nacalai Tesque, Kyoto, Japan) according to the manufacturer’s protocol. All data were expressed as percent dose per milligram protein (%dose/mg protein). In blocking experiments, a selective inhibitor of the PSMA, (2S)-2-(phosphonomethyl)pentanedioic acid (2-PMPA) (final concentration 100 µM), was added to each well with tracers. After incubation for 10, 60, and 120 min, radioactivity and protein concentration were determined in the same manner as the experiment without the blocking agent.

Effect of IPBA administration on radioactivity levels in tissues [1]: significantly decreased
Compound: O=C([O-])CN1CCN(CC(=O)[O-])CCN(CC(=O)NC(CCCCNC(=O)CCCc2ccc([125I])cc2)C(=O)NCC2CCC(C(=O)NC(Cc3ccc4ccccc4c3)C(=O)NCCCCC(NC(=O)NC(CCC(=O)O)C(=O)O)C(=O)O)CC2)CCN(CC(=O)[O-])CC1.[Ga+3] (centres unmarked) [[^125I]5]
Effect of excess 2-PMPA on cellular uptake [2]: significantly reduced
